Experimental data published in EP0563732A1, “7-oxo-7H-pyrido(1,2,3-de)(1,4)benzoxazinecarboxylic acids and esters and their use as antiviral agents” (BAYER AG, priority 1992, dated 1993).
Structures can show the parent of a compound that is named as a salt.

Tested on: Hepatitis B Virus
Experiment: HBV test system: HBV-DNA in the supernatant of transfected hepatoma cells (PEG precipitation, non-radioactive HBV DNA probe)
Format: cell-based
Conditions: HepG2.2.15, 50% inhibition of HBV-DNA concentration in supernatant, HEP G2.2.15 cells, read-out: IC₅₀
Excerpt: Der Nachweis wurde in mit Hepatitis B Virus DNA transfizierten Hepatomzellen (HEP G2.2.15) geführt. Die Ergebnisse der unten aufgeführten Beispiele wurden zu dem in der folgenden Literaturangabe [Sells, M.A.; Chen, M.L., Acs, G., Proc. Natl. Acad. Sci. USA S. 1005 - 1009, Vol. 84 (1987] beschriebenen HBV-Testsystem ermittelt:
Transfizierte Hepatomzellen (HEP G2.2.15) wurden mit verschiedenen Konzentrationen an der jeweiligen Verbindung inkubiert. Durch Behandlung der transfizierten Hepatomzellinie HEP G2.2.15 mit den erfindungsgemäßen Verbindungen konnte das […] der virusspezifischen HBV-DNA im Überstand sowie eine Reduktion des HBsAg Spiegels gezeigt werden. Es wurde weiter gefunden, daß die erfindungsgemäßen Verbindungen zu einer Reduktion der replikativen Intermediate der Hepatitisviren führen. Im Überstand der Zellkulturen wurde nach PEG Fällung der Gehalt an HBV-DNA bestimmt. Dies geschah unter Verwendung einer nicht radioaktiv markierten HBV genomischen DNA Probe [Pauly, P., 1982, Ph.D. Thesis, University of Göttingen, F.R.G.; Köchel et al., 1990, EMBL, Accession-Nr. X 51790]. Gleichzeitig erfolgte der Nachweis der Beeinflussung der HBsAg Bildung mittels eines kommerziell erhältlichen Elisa Tests. Die angegebenen IC₅₀-Werte beziehen sich auf die Substratkonzentrationen, die unter den oben aufgeführten Testbedingungen eine 50%ige Hemmung der HBV-DNA Konzentration im Überstand bewirken. Tabelle A
Gleichzeitig erfolgte die Bestimmung des möglicherweise vorhandenen cytotoxischen Einflusses der erfindungsgemäßen Verbindungen mittels Kristallviolettfärbung bzw. über den Einbau von radioaktiv markiertem Thymidin in die zelluläre DNA.

SMILES | IC50 [nM]
CN1CCN(c2c(F)cc3c(=O)c(C(=O)O)cn4c3c2OC(C(C)(C)C)=C4)CC1 [Beispiel 1, 2-tert-Butyl-9-fluor-10-(4-methyl-1-piperazinyl)-7-oxo-7H-pyrido[1,2,3-de][1,4]-benzoxacin-6-carbonsäure] | 100
CC1=COc2c(N3CCOCC3)c(F)cc3c(=O)c(C(=O)O)cn1c23 [Beispiel 16] | 5000
COC(=O)c1cn2c3c(c(N4CCNCC4)c(F)cc3c1=O)OC=C2C [Beispiel 33] | 500
CCOC(=O)c1cn2c3c(c(N4CCC(N)C4)c(F)cc3c1=O)OC(c1ccc(OC)cc1)=C2 (centres unmarked) [Beispiel 38, 10-(3-Amino-1-pyrrolidinyl)-9-fluor-2-(4-methoxyphenyl)-7-oxo-7H-pyrido[1,2,3-de][1,4]benzoxacin-6-carbonsäureethylester-hydrochlorid] | 5000
CC1=COc2c(N3CCNCC3)c(F)cc3c(=O)c(C(=O)O)cn1c23 [Beispiel 39] | 100
